The values that follow come from ChEMBL document CHEMBL1148128, “Clathriol, a novel polyoxygenated 14beta steroid isolated from the New Zealand marine sponge Clathria lissosclera” (J Nat Prod, 2002).

A short description of test [1]: Antiinflammatory in rat peritoneal mast cell assessed as inhibition of histamine release at 30 uM. The class given is functional. Also on record: scale not given: the % may be the effect or the level left.
For a further test, the system named is PBMC. As to the kind of experiment: Inhibition of PMA or fMLP-induced human PBMC activation assessed as superoxide production at 30 uM. Format: functional. More on the design: scale not given: the % may be the effect or the level left.
The nature of test [2]: Antiinflammatory in rat peritoneal mast cell assessed as inhibition of histamine release. The class given is functional, cell-based.

What is called pIC50 is the negative decadic logarithm of the IC50, by convention in mol/L.

pIC50: −log10 of the molar value.

On to `CC(C)C(CCC(C)[C@H]1CC(=O)[C@H]2[C@@H]3[C@@H](O)[C@H](O)[C@H]4C[C@@H](O)CC[C@]4(C)[C@H]3CC[C@]12C)C(C)O` (stereo partly drawn), for which the results for the Activity (in test [1]; in the test on PBMC) were 72% and 76%, respectively.

In the case of `CC(C)[C@@H]1CC(O)O[C@H](C(C)[C@H]2CC(=O)[C@H]3[C@@H]4[C@@H](O)[C@H](O)[C@H]5[C@@H](O)[C@H](O)CC[C@]5(C)[C@H]4CC[C@]23C)C1` (stereo partly drawn), the pIC50 in test [2] is 6.10.
